Experiments:
Assay type in all cases: biochemical
MMP-13 = target: T1, MMP-13 (Homo sapiens, UniProt P45452); assay: Test 2 Test on MMP-13 inhibition activity (fluorogenic peptide substrate); conditions: activated MMP-13, 37° C.
T1 construct: a fragment of 767 bp encoding original 84 amino acids of complete MMP-13 and encoding 164 amino acids; made in house; host or cells: E. coli BL21 (DE3), pET11a
From the text: Test 2 Test on MMP-13 Inhibition Activity
In order to subcloning C-terminal truncated cDNA in which the cDNA encodes procollagenase-3 (proMMP-13) (J. Biol. Chem., 269(24), 16766-16773 (1994)), two synthesized oligonucleotide primer fragments: • (5′-[…]-3′ and 5′-[…]-3′: In former the sequence for specific NdeI site (under line) including first methionine is included, and in latter terminal codon and BamHI site (under lined) are included.) were used with human cartilage cell cDNA library for PCR. Due to these primers and Pfu DNA polymelase (STRATAGENE) for PCR, there was obtained a fragment of 767 bp encoding original 84 amino acids of complete MMP-13 and encoding 164 amino acids. The said fragment was cut out with digestion by NdeI and BamHI, and the fragment was annealed to NdeI site and BamHI site of pET11a (STRATAGENE). The recombinant plasmid was transformed into E. coli BL21 (DE3) and the bacteria were cultivated. The crude cell extract was prepared according to the method of Biochemistry. The said extract was dialyzed with 20 mM Tris-HCl (pH 7.2)/5 mM CaCl2/0.02% NaN3 solution, treated with SP-sepharose HP column (1.6×10 cm, Amasham-Pharmacia biotec), and the eluting was carried out by liner gradient from 0 to 0.3 m of sodium chloride solution (50 ml) (partially purified proMMP-13 was eluted at about 0.2M.) The eluted fraction was dialyzed with 20 mM Tris-HCl (pH 7.9)/5 mM CaCl2/200 mM (NH4)2SO4/0.02% NaN3 solution, treated with phenylsepharose HP column (1.6×5 cm, Amersham-Pharmacia biotec), and the eluting was carried out by liner gradient from 0.2M to 0M sulfuric acid ammonium solution (purified proMMP-13 was eluted at about 50 mM.). The eluted fraction was concentrated by YM-5 ultrafilter membrane, and activated by 4-aminophenyl mercuric acetate. Activated MMP-13 was treated with gel filtration chromatography in accordance with the method of Biochemistry to be separated from propeptide. Inhibiting Test Method
Enzyme activity test was carried out by the method of G. Knight (FEBS Lett., 296(3), 263-266 (1992)).
A mixture of activated MMP-13 (20 nM, 10 μl), buffer solution (70 μl, pH 7.5 solution containing 100 mM Tris-HCl solution, 10 mM calcium chloride solution, 100 mM sodium chloride solution and 0.05% Briji-35 solution), MOCAc-Pro-Leu-Gly-Leu-A2pr(DNP)-Ala-Arg-NH2 in 0.1% DMSO solution (100 μM, 10 μl) and a test compound in DMSO solution was incubated for 1.5 hours at 37° C. The mixture was put on a 96 well-plate (100 μl/wel), and the plate was incubated at 37° C. The enzyme activity in the presence of the compound was measured based on fluorescence intensity (λex 320 nm, λem 405 nm), and IC50 was calculated.

MMP-3 = target: T2, MMP-3 (Homo sapiens, UniProt P08254); assay: Test 1 Test on MMP-3 inhibiting activity (fluorogenic peptide substrate); conditions: activated MMP-3, 37° C.; read-out: MMP-3 inhibition activity value
T2 construct: C-terminal truncated cDNA in which the cDNA encodes human prostromelysin; made in house; host or cells: E. coli
Procedure: Test 1 Test on MMP-3 Inhibiting Activity
C-terminal truncated cDNA in which the cDNA encodes human prostromelysin, was subcloned (proMMP-3, cDNA sequence in Nature, 348, 699-704 (1990)), was expressed in E. coli and then, the expressed protein was purified in accordance with the method described in Biochemistry 30, 6476-6483 (1991). proMMP-3 activation was carried out by treating with 1 mM 4-aminophenyl mercuric acetate for 60 minutes at 37° C.
Enzyme activity test was conducted by the method of C. G. Knight (FEBS Lett., 296(3), 263-266 (1992)).
A mixture of activated MMP-3 (20 nM, 10 μl), buffer solution (70 μl, pH 7.5 solution containing 100 mM Tris-HCl solution, 10 mM calcium chloride solution, 100 mM sodium chloride solution and 0.05% Brij-35 solution), MOCAc-Pro-Leu-Gly-Leu-A2pr(DNP)-Ala-Arg-NH2 in 0.1% DMSO solution (100 μM, 10 μl) and a test compound in DMSO solution was incubated for 1.5 hours at 37° C. The mixture was put on a 96 well-plate (100 μl/well) and the plate was cultured at 37° C. The enzyme activity in the presence of the compound was measured based on fluorescence intensity (λex 320 nm, λem 405 nm), and IC50 was calculated.

MMP-14 (MT1-MMP) = target: T3, MMP-14 (MT1-MMP) (Homo sapiens, UniProt P50281); assay: Test 5 MMP-14 (MT1-MMP) inhibiting activity test; conditions: human recombinant MT1-MMP, 37° C.; read-out: MMP-14 inhibition activity value
T3 construct: purchased Biogenesis, supplied by Cosmobio (Nakarai Tesku)
Procedure: Test 5 MMP-14 (MTI-MMP) Inhibiting Activity Test
Human recombinant MTI-MMP used the product prepared by Biogenesis and supplied by Cosmobio (Nakarai Tesku).
An assay buffer solution (70 μl, pH 7.5 solution containing 0.1M Tris-HCl solution, 0.1M calcium chloride solution, 10 mM sodium chloride solution and 0.05% Brij-35 solution), 0.1 w/w % a compound in DMSO (10 μl), MMP substrate solution (MOCAc-Pro-Leu-Gly-Leu-A2pr(DNP)-Ala-Arg-NH2 (Peptide Lab.) diluted with the assay buffer solution (50 μM, 10 μl)) and human recombinant MT1-MMP (0.4 pg/10 μl/well) were well agitated under stirring. The enzyme activity of the mixture was measured based on fluorescence intensity (λex 320 nm/λem 405 nm) by a fluorescence reader. After the mixture was incubated at 37° C. for 0.5 hour, the fluorescence intensity (λex 320 nm/λem 405 nm) was measured every hour, and IC50 was calculated.
The inhibition value was calculated by withdrawing average value of blank well from fluorescence mean value of well in which MT1-MMP was added. As the blank was used the mixed solution prepared by adding assay buffer (10 μl) instead of MT1-MMP solution.

MMP-9 = MMP-9 (Homo sapiens, UniProt P14780); assay: Test 4 MMP-9 inhibiting activity test (biotin labeled gelatin); conditions: activated human MMP-9, biotin labeled gelatin; read-out: MMP-9 inhibition activity value
Procedure: Test 4 MMP-9 Inhibiting Activity Test
A mixture of buffer solution (190 μl; pH 7.5 solution containing 50 mM Tris-HCl solution, 0.5 m sodium chloride solution and 5 mM calcium chloride solution), human MMP-9 (10 μl) and trypsin solution (20 μl; trypsin 3 mg in activated buffer (5 ml)) was incubated at 37° C. for 10 minutes. Thereto was added aprotinine solution (20 μl; aprotinine (3 mg) in buffer (5 ml)) and the mixture was incubated at 37° C. for 10 minutes, followed by addition of buffer (2 ml). The mixture was preserved under cooling with ice until use.
A mixture of DMSO solution (2 μl) containing definite concentration of the compound, biotin labeled gelatin (188 μl) and activated MMP-9 solution (10 μl) was put on a 96 well-assay plate (protein nonabsorbance type), well agitated, and incubated at 37° C. for 1 hour. This solution was transferred to Streptavidin-coating plate, and agitated at 15° C. to 30° C. for 30 minutes. And then the solution was washed with TTC buffer solution (200 μl) three times. Thereto was added Streptavidin-POD (200 μl) and the mixture was agitated at 15° C. to 25° C. for 60 minutes, followed by washing with TTC buffer (200 μl) three times. Then, ABTS solution (200 μl) was added thereto and after standing at room temperature for 40 minutes, furuorescence intensity was measured at 405 nm and IC50 was calculated.
In case of the above test, DMSO (2 μl) was used as a control instead of a sample solution. In the case of a blank, DMSO (2 μl) instead of the sample solution and the solution (10 μl) prepared in the same manner as preparation of […] but without adding 1.2 Uhuman MMP-9, instead of activated MMP-9 solution (10 μl), were used.

T2 sequence (P08254 100-272 limits assumed): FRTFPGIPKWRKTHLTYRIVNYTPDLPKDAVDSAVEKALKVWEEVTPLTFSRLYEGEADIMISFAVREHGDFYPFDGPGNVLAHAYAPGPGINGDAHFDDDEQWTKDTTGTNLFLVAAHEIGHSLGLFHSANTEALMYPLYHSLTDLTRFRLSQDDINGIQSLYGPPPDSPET
Chain of MMP-9 (P14780 107-707 limits assumed): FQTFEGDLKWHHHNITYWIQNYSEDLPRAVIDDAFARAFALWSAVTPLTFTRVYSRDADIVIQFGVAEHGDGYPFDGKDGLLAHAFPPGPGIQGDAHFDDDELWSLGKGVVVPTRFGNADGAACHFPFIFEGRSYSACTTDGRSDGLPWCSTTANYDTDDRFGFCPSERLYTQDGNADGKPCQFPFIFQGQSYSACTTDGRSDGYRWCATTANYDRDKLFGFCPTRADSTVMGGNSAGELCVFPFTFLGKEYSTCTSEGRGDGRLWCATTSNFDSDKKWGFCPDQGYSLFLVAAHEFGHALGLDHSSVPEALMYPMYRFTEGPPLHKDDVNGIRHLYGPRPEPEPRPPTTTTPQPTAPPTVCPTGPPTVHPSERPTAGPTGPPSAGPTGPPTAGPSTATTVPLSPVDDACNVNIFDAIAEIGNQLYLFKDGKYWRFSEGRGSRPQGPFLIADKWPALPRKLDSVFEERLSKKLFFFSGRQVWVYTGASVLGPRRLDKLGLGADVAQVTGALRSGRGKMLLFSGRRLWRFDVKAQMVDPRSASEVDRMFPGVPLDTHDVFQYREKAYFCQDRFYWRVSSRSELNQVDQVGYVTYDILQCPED

SMILES: CC(C)CN(CC(=O)NO)S(=O)(=O)c1ccc(Oc2ccc(S(C)(=O)=O)cc2)cc1 [Example 5, N′^1′-Hydroxy-N′^2′-isobutyl-N′^2′-({4-[4-(methylsulfonyl)phenoxy]phenyl}sulfonyl)glycinamide]
- IC50 (MMP-13): 1.3 nM
- IC50 (MMP-3): 15.4 nM
- IC50 (MMP-14 (MT1-MMP)): 105 nM
- IC50 (MMP-9): > 100 nM

From patent US7504537B2, “Hydroxamic acid derivative and MMP inhibitor containing the same as active ingredient” (Dainippon Sumitomo Pharma Co., Ltd., priority 2001, dated 2009)
